Data from patent US20090318465A1, “METHOD FOR IDENTIFYING COMPOUNDS THAT ACT AS INSULIN-SENSITIZERS” (priority 2006, published 2009).
“Also recorded” adds a separate entry of the source.

How the values were obtained:
[1] = tested on: dexamethasone treated insulin resistant 3T3-L1 adipocytes; test: Insulin resistance assay (IR assay), 14C-2-deoxyglucose uptake; assay type: cell-based, mouse; conditions: for % of Rosiglitazone (comparison with Rosiglitazone): test compound 10 μM/mL versus Rosiglitazone 0.1 μM; for Fold vehicle (fold activity over vehicle): test compound 10 μM/mL, glucose uptake with 200 nM insulin, vehicle = 1.0
Text: A suitable insulin resistance assay includes screening of compounds which act as insulin-sensitizers using chronically dexamethasone treated 3T3-L1 adipocytes as an in vitro model. This is a known model for studying insulin signaling and insulin resistance. Chronically dexamethasone treated 3T3-L1 adipocytes serve as a valid in vitro model of insulin resistance resembling diabetes patients.
In an embodiment, the method according to the present invention includes screening compounds identified as active in the phenotype-based assay against dexamethasone treated insulin resistant adipocytes. For example, the method can include applying actives from the insulin sensitivity assay at a concentration of 1-10 μM to the insulin resistant adipocytes for 1-4 days. The adipocytes were previously prepared for the assay by long term exposure to dexamethasone, for example, at 100 nM for about 24-48 hours.
The method can also include determining whether the compounds enhance glucose uptake in the insulin resistant adipocytes by more than 50% above that enhanced by insulin. The method can then include selecting compounds as active, if they caused 1.5 fold or more increase in glucose uptake compared to insulin treated adipocytes. Glucose uptake can be measured by any of a variety of known methods, such as measuring uptake of ^14C-labeled 2-deoxyglucose, a non metabolisable analogue of D-Glucose.
The assay was designed as in the reference, British Journal of Pharmacology, 130, 351-58, 2000, which is incorporated herein by reference for disclosure of the assay.
The solution of test compound (10 μM/mL) was prepared in DMSO.
Rosiglitazone (0.1 μM in DMSO) was used as standard.
Differentiation into adipocytes was induced by known methods as described below. (J. Biol. Chem., 260, 2646-2652, 1985, which is incorporated herein by reference for disclosure of the induction).
Culture medium containing […] 1-methyl-3-isobutylxanthine (IBMX), 0.25 μM dexamethasone, 5 μg/ml insulin (bovine/human), 10 mM HEPES buffer and fetal bovine serum (FBS) 10% by volume in Dulbecco's modified Eagle's medium (DMEM) was used for differentiation.
3T3 L1 fibroblasts were seeded in 24-well or 6-well plates at a density of 0.5-2×10^4 cells/well and were allowed to reach maximal confluency.
The confluent fibroblasts were exposed to culture medium for 2 days. After this period, fresh culture medium (DMEM) containing only insulin was used, 10% FBS was added and cultured for 4 days with change of medium every 2 days. After 7 days the cultures received DMEM containing 10% FBS with no exposure to insulin. By the end of 8-10 days, more than 95% of the cells have become differentiated into adipocytes.
The mature adipocytes were exposed to dexamethasone, 100 nM added in ethanol, in culture medium and incubated for 2 days. On the third day, solution of test compound was added along with 100 nM dexamethasone containing medium for 4 days with a change in medium after every 2 days. Vehicle control contained 1% v/v of DMSO. Rosiglitazone was used as a standard and was added at a concentration of 0.1 μM in DMSO, along with 100 nM dexamethasone containing medium for 4 days with a change in medium after every 2 days. After a total period of 6 days, the cells were processed for glucose uptake as follows.
The insulin resistant adipocytes were exposed to serum-free DMEM containing 0.1% bovine serum albumin for 3-4 hours at 37° C. in CO2 atmosphere. The test compound was also present during this period. After 3-4 hours, the medium was aspirated and replaced with Kreb's Ringer phosphate (KRP) buffer at pH 7.4 and with human/porcine insulin, 200 nM. The cells were incubated for 30 minutes at 37° C. At the end of 30 minutes, 0.05 or 0.1 μCi of ^14C-2-deoxyglucose was added to each well of either 24-well or 6-well plates respectively and was incubated for exactly 5 minutes. After exactly 5 minutes, the plates were transferred to ice trays and medium was rapidly aspirated. […]

[2] = tested on: genetically diabetic db/db BL/6J mice; test: Screening in db/db BL/6J mice, plasma glucose reduction; assay type: in vivo; conditions: 10 days
Method: In an embodiment, the method includes selecting 6-8 weeks old male db/db mice based on blood glucose levels determined after withholding feed for four hours. For example, the method can employ animals with plasma glucose levels in a suitable range, such as 300-500 mg/dl. The selected mice can be orally dosed with test (lead) compound, for example, in 0.5% carboxy methyl cellulose (CMC) vehicle at a suitable frequency and for a suitable time, such as twice daily for 10 consecutive days. This embodiment of the method can include obtaining blood on, for example, day 5 and day 10, after withholding feed for four hours, and determining plasma glucose levels. These levels can be determined using enzymatic methods (e.g., Diasys kit, Germany) in an autoanalyser. Lead compounds are considered to be in vivo actives if they produce statistically significant fall in plasma glucose on day 10 compared to mice treated with 0.5% CMC vehicle. Rosiglitazone can be used as a standard at 5 mg per kg (mpk) bid for comparison with test compounds.
The protocol was designed as in references. • 1.
The screening of compounds was based on their ability to reduce the plasma glucose levels in genetically diabetic db/db BL/6J mice.
Male db/db mice (obtained from the Animal House of Nicholas Piramal Research Centre, Goregaon, Mumbai, India) were used for this study (body weight in the range of 30-40 g and age is 6-8 weeks) and were kept eight per cage in individually ventilated cages at controlled temperature (22±1° C.) and humidity (45±5%). Food and water were provided ad libitum during their laboratory stay, except for four hours fasting prior to blood sample collection. 12 hours light and dark cycle was followed during the whole study period.
After 4 hours fasting blood samples were collected from mice. Mice showing plasma glucose levels between 300 to 500 mg/dl were divided in groups (8-10 per group) such that the mean plasma glucose levels and variation within the group, for each group, is nearly same. After grouping, mice in respective groups received treatment with 0.5% CMC vehicle, standard compound or test compounds for 10 days. Rosiglitazone was used as a standard.
After 4 hours fasting, mice were anaesthetized using isoflurane (inhalation anesthetic), and blood samples were collected through the retro orbital plexus. Collected blood samples were centrifuged at 7000 rpm for 10 minutes at 4° C.; Separated plasma was used for estimation of plasma glucose using diagnostic kits (Diasys, Germany). Plasma glucose levels of treated groups were normalized with control group using the following formula, which accounted for the changes in control group.

[3] = tested on: diet induced obese (DIO) mice; test: Evaluation of antiobesity, chronic study in diet induced obese mice; assay type: in vivo; conditions: 10 days, vs vehicle
Text: In an embodiment, the method includes selecting 17-18 week old male diet induced obese (DIO) mice, which were maintained on a high fat diet (D12451, Research Diets Inc, New Brunswick, N.J. 08901, USA, 45% kcal from fat), based on body weight. The selected mice can be dosed intraperitoneally with test (lead) compound, for example, in 0.5% CMC vehicle at a suitable frequency and for a suitable time, such as once daily for 10 consecutive days. This embodiment of the method can include recording body weight and food weight daily. Lead compounds are considered to be in vivo active if they produce statistically significant decrease in cumulative food intake for up to 1 day and a statistically significant decrease in cumulative body weight gain on day 10 as compared to mice treated with the 0.5% CMC vehicle. Sibutramine can be used as a standard at 3 mpk for comparison.
The assay was designed as in the reference, British Journal of Pharmacology, 132, 1898-1904, 2001, the disclosure of which is incorporated by reference for the teaching of the assay.
Male C57BI6/J mice (3-4 weeks of age) were housed in groups of 10 animals per cage in the animal facility. High fat diet (D12451 Research Diets Inc., New Brunswick, N.J. 08901, USA, 45% kcal from fat) and water was provided ad libitum for 14 weeks. After this period, the animals were housed individually in cages. The animals were weighed and separated into groups with similar body weight. They were acclimatised to the experimental procedures for 2 days. Animals were dosed intraperitoneally with test compound (200 mpk) or the standard (3 mpk) in 10 mL/kg of 0.5% CMC vehicle between 10:00 am-12:00 noon. After drug administration the animals were presented with a pre-weighed amount of food in the food cup. Weight of feed remaining in the cup and body weight were recorded daily just prior to dosing. The change in weight and cumulative food intake were computed.

db/db mice = test: Evaluation of lipid levels (dyslipidemia) in db/db mice; assay type: in vivo; conditions: 15 days
Method: (§1) Body weight was measured daily. On day 15, the animals were deprived of food for 4 hours after the last dose administration. Blood was collected at the end of the 4-hour period using heparinised capillaries by a retro-orbital puncture. Plasma samples were analyzed for, triglyceride and cholesterol, using the autoanalyser.
The assay was designed as in the reference, Metabolism, 49 (1), 22-31, 2000, the disclosure of which is incorporated by reference for the teaching of the assay.
as §1, with “Seven groups of male db/db mice (8 animals per group) were used. […] Body” for “Body”, “for glucose, triglyceride,” for “for, triglyceride and”

| Structure (SMILES) | % of Rosiglitazone (comparison with Rosiglitazone) [1] [%] | Fold vehicle (fold activity over vehicle) [1] | Normalization with control (plasma glucose reduction) ([2]; 100 mpk bid, oral, 4 h fasted) | also measured |
| --- | --- | --- | --- | --- |
| COc1ccc(S(=O)(=O)Nc2cnc(Oc3cnc4ccccc4c3)c(Cl)c2)cc1 [Compound 8, N-[5-Chloro-6-(quinolin-3-yloxy)-pyridine-3-yl]-4-methoxy-benzene sulfonamide] | 66.4 ± 5.2 | 2.19 ± 0.09 | 41.90 ± 3.84 | – |
| COC(Cc1ccc(OCCN(C)C(=O)OC(C)(C)C)cc1)C(=O)O (stereo not shown) [Compound 2, 3-{4-[2-(tert-Butoxycarbonyl-methyl-amino)-ethoxy]-phenyl}-2-methoxy-propionic acid] | 105 ± 3.6 | 2.62 ± 0.05 | 45.14 ± 4.92 | – |
| COC(=O)C(Cc1ccc(OCCN(C)C(=O)OC(C)(C)C)cc1)(OC)C(=O)OC [Compound 1, 2-{4-[2-(tert-Butoxycarbonyl-methyl-amino)-ethoxy]-benzyl}-2-methoxy-malonic acid dimethyl ether] | 72.5 ± 2.6 | 2.2 ± 0.18 | 42.93 ± 4.95 | – |
| CC(=O)N1CCN(c2ccc(Oc3ncc(NC(=O)CCC(=O)O)cc3Cl)cc2)CC1 [Compound 7] | 27.5 ± 3.0 | 1.49 ± 0.05 | Inactive | – |
| CC(=O)N1CCN(c2ccc(Oc3ncc(NS(=O)(=O)c4ccc(Cl)cc4Cl)cc3Cl)cc2)CC1 [Compound 6, N-{6-[4-(4-Acetyl-piperazin-1-yl)-phenoxy]-5-chloro-pyridin-3-yl}-2,4-dichloro benzenesulfonamide] | 61.4 ± 3.15 | 2.10 ± 0.05 | 46.07 ± 4.55 | cumulative food intake ([3]; 200 mpk intraperitoneally, FIG. 4, 200 mg/kg): effective in reducing cumulative food intake; also recorded: significantly inhibited food intake; cumulative body weight gain ([3]; 200 mpk intraperitoneally, FIG. 5, 200 mg/kg): effective in reducing cumulative body weight gain; also recorded: inhibited body weight gain on all days |
| CC(C)(COC(=O)COc1ccc(C(=O)CN2Cc3cc(C(N)=S)ccc3C2=O)cc1)NS(=O)(=O)c1cccnc1 [Compound 3, {4-[2-(1-Oxo-5-thiocarbamoyl-1,3-dihydro-isoindol-2-yl)-acetyl]-phenoxy}-aceticacid-2-methyl-2-(pyridine-3-sulfonylamino)-propyl ester] | 31.6 ± 6.2 | 1.48 ± 0.09 | – | Normalization with control (plasma glucose reduction) ([2]; 50 mpk od): Inactive |
| CN(CCOc1ccc(CC2SC(=O)NC2=O)cc1)c1ccccn1 (stereo not shown) [Rosiglitazone] | – | – | – | decrease in plasma triglyceride levels (db/db mice; Rosiglitazone 5 mpk oral bid): 40%; reduction in cholesterol levels (db/db mice; Rosiglitazone 5 mpk oral bid): 27% |
| O=S(=O)(Nc1cnc(Oc2cc3ccccc3cn2)c(Cl)c1)c1ccc(Cl)cc1Cl [Compound 5, 2,4-Dichloro-N-[5-chloro-6-(isoquinolin-3-yloxy)pyridin-3-yl]-benzene sulfonamide] | 78.7 ± 3.5 | 2.41 ± 0.06 | – | reduction in cholesterol levels (db/db mice; doses higher than 50 mpk oral bid): 26%; Normalization with control (plasma glucose reduction) ([2]; 150 mpk od): 43.2 ± 15.7 |
| CC(C)CC(N(C)C)C1(c2ccc(Cl)cc2)CCC1 (stereo not shown) [Sibutramine, reference compound] | – | – | – | cumulative food intake ([3]; standard 3 mpk intraperitoneally, FIG. 4): significantly inhibited food intake; cumulative body weight gain ([3]; standard 3 mpk intraperitoneally, FIG. 5): inhibited body weight gain on all days |
| CCOC(=O)CCN1Cc2cc(NCCN(C)c3nc4ccccc4o3)ccc2C1=O [Compound 4, 3-{5-[2-(Benzooxazol-2-yl-methyl-amino)-ethylamino]-1-oxo-1,3-dihydro-isoindol-2-yl}propionic acid ethyl ester] | 76.8 ± 12.4 | 1.88 ± 0.14 | – | Normalization with control (plasma glucose reduction) ([2]; 50 mpk bid): 24.99 ± 17.92 |
